Results published in US12161723B2, “Water-based cannabinoid and opioid compositions” (DAY THREE LABS MAN[…]., priority 2014, dated 2024).

What was measured:
[1] = Cannabis smoke/vapor passed through pure ethanol, cannabinoid profile (Example 1d); assay type: physicochemical; details: for relative concentration of cannabinoids (relative to total cannabinoid content), Vapor passed through ethanol: vapor at 210° C.
Procedure: (§1) To show which cannabinoid compounds are solubilized in processes using BSA versus organic solvents, cannabis from two different batches was smoked and or vaporized. Vapor was formed using a “volcano” vaporizer at a temperature of 210° C. The smoke/vapor was passed through either a BSA/water/ethanol solution described in example 1b, comprising 33% by volume ethanol or through a pure ethanol (99% ethanol) solution. Solutions were stirred using a magnetic stirrer and were incubated for 48 hours, during which time, most of the ethanol evaporated. One of the batches of cannabis was high in THC, and the other batch of cannabis was high in both THC and CBD.

[2] = target: T1, BSA (Bos taurus, UniProt P02769); experiment: Cannabis extract combined with albumin solution, cannabinoids adsorbed to BSA (Example 2a); assay type: binding, bovine; details: albumin solution 10 mg/ml (BSA) with 20% ethanol, 2 hours at room temperature
T1 sequence (P02769 25-607): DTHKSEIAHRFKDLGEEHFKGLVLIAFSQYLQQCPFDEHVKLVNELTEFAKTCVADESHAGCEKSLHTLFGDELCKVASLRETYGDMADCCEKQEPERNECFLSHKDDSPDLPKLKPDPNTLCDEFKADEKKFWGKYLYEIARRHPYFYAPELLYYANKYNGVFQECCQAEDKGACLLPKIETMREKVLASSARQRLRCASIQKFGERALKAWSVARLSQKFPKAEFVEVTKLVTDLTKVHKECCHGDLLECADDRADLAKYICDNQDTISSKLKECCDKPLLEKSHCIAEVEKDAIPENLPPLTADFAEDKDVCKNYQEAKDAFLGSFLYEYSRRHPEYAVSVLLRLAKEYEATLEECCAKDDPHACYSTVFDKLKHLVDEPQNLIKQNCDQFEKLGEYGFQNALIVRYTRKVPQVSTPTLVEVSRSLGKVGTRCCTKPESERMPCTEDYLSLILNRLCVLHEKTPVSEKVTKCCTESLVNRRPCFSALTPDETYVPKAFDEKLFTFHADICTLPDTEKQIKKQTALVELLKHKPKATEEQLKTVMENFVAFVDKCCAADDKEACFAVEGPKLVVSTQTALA
Procedure: (§2) Cannabis extract was prepared as follows: In short, cannabis plant matter is dried, ground and homogenized to form ground cannabis. The ground cannabis is extracted with methanol/chloroform (volume/volume ratio of 9:1). Sonication and filtration is then performed. Identity of cannabinoids is determined by HPLC by evaporation, dissolution in an appropriate solvent.
(§3) Drying of the cannabis plant matter occurs under high vacuum at about 37±2° C. for about 24 hours and then ground to form a fine powder. 200 mg of ground powder is combined with 10 ml of methanol/chloroform, and sonicated in an ice bath for 30 minutes at maximum power. The supernatant is then filtered through a 0.2 micron filter.
(§4) A sample of the cannabis extract was analyzed for content of cannabinoids. The cannabis extract was then combined with albumin solution having 20% ethanol at 10 mg/ml (BSA) and incubated for 2 hours at room temperature.

[3] = target: T1, BSA; experiment: Adsorption capacity of BSA using THC standard (Example 1e); assay type: binding, bovine; details: albumin 20 μg/ml in water and ethanol; THC 20-60 μg/ml; incubation two hours or 12 hours; FIG. 4
Procedure: An albumin solution in water (20 μg/ml) and ethanol was prepared. THC standard was added at concentrations of between 20 μg/ml and 60 μg/ml. The amount of THC adsorbed to the BSA protein was determined for each concentration after incubation for either two hours or 12 hours while gently vortexing.

[4] = target: T1, BSA; experiment: THC standard adsorption to BSA at varying ethanol content (Example 1c); assay type: binding, bovine; details: 10 micrograms BSA, 30 micrograms THC, 1.5-15 microliters ethanol; FIG. 5
Procedure: 30 micrograms of THC standard was dissolved in various amounts of ethanol (absolute) in various amounts, between 1.5 microliters and 15 microliters. The THC solution was then combined with 0.5 ml of a 20 microgram/ml solution of BSA. […] The results can be seen in FIG. 5.

[5] = target: T1, BSA; experiment: Cannabis smoke/vapor passed through BSA/water/ethanol solution, cannabinoid profile (Example 1d); assay type: binding, bovine; details: 33% ethanol, 48 hours incubation, washed
Procedure: as §1
The BSA/water/ethanol solution was washed after smoke or vapor was combined with it, and the amount of cannabinoids present was analyzed. The results of the comparison of relative concentration of cannabinoids (relative to total cannabinoid content) as expressed in percent (weight/weight), for a strain of cannabis high in THC are shown in the table below.

[6] = Cannabinoid content of cannabis extract (Example 2a); assay type: physicochemical; details: methanol/chloroform 9:1 cannabis extract
Procedure: as §2, §3, §4

[7] = 3 g high THC strain; 200 ml ethanol concentrated to about 3 ml
[8] = target: albumin (BSA) (Bos taurus, UniProt P02769); experiment: Ethanolic cannabinoid solution mixed with aqueous albumin, protein-bound cannabinoid quantified (Example 2b); assay type: binding, bovine; set-up: protein-bound cannabinoid quantified, Vapor: unit not given beside the values; details: 100 microliters ethanolic solution + 500 microliters 5 mg/ml BSA, 30° C., 12 hours, non-adsorbed cannabinoids separated
Chain of albumin (BSA) (P02769 25-607): as above
Procedure: 100 microliters of ethanolic cannabinoid solution from cannabis vapor and cannabis smoke were each mixed with 500 microliters of aqueous albumin solution that had been prepared at a concentration of 5 mg albumin (BSA)/ml. The aqueous albumin solution combined with the ethanolic cannabinoid solution was incubated at 30° C. for 12 hours in open tubes. After 12 hours, the tubes were mixed and centrifuged, and non-adsorbed cannabinoids were separated from the solution. Concentrated protein-bound cannabinoid was dried and quantified as described below.

[9] = tested on: bovine γ-globulin; experiment: Cannabis vapor streamed through protein solution, cannabinoids adsorbed (Example 1f); assay type: binding; details: vapor of cannabis high in CBD; 1 mg/ml protein, ethanol:water 1:2, 30° C., 24 hours
Procedure: (§5) The protein solutions were formed using ethanol and water in a 1:2 ratio. The solutions were incubated at 30° C. for 24 hours.

[10] = target: T2, rice recombinant human serum albumin (HSA) (Homo sapiens, UniProt P02768); experiment: as above; assay type: binding; details: vapor of cannabis high in CBD; 1 mg/ml protein, ethanol:water 1:2, 30° C., 24 hours
T2 construct: host or cells: rice (recombinant expression host)
T2 sequence (P02768 25-609): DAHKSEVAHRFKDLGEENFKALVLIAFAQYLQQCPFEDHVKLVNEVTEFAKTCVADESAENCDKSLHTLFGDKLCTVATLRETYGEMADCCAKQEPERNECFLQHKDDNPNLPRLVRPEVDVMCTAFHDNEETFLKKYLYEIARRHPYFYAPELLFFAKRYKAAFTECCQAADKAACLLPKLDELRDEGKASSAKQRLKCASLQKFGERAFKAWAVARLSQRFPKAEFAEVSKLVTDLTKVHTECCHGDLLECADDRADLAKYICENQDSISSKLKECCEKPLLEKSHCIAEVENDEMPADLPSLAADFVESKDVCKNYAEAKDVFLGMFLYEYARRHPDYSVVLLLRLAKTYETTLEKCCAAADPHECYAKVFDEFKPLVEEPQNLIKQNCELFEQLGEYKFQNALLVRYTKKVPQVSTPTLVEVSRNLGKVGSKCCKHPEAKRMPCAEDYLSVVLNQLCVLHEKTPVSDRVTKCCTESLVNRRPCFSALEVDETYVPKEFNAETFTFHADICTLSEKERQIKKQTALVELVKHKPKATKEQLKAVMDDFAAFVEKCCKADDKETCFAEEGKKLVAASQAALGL
Procedure: as §5

[11] = target: T3, ovalbumin (hen) (Gallus gallus, UniProt P01012); experiment: as above; assay type: binding; details: vapor of cannabis high in CBD; 1 mg/ml protein, ethanol:water 1:2, 30° C., 24 hours
T3 sequence (P01012 1-386): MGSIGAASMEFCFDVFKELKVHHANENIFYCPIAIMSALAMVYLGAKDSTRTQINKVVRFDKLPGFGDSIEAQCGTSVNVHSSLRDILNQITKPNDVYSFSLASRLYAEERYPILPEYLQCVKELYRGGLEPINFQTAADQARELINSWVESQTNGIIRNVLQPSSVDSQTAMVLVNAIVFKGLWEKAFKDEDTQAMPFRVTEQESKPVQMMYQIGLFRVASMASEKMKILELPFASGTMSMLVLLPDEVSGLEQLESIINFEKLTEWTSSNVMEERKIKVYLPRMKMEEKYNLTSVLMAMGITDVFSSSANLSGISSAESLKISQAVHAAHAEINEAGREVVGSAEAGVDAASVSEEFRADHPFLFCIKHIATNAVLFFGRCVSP
Procedure: as §5

[12] = target: T4, bovine serum albumin (BSA) (Bos taurus, UniProt P02769); experiment: Cannabis smoke bubbled through aqueous BSA solution, cannabinoids determined by HPLC (Example 1a); assay type: binding; details: BSA in Hartmann's solution; FIG. 2A
T4 construct: purchased Millipore, USA
T4 sequence (P02769 25-607): as the sequence (P02769 25-607) above
Procedure: Protein-bound cannabinoid was formed according to the following method. An aqueous albumin solution was prepared by adding 20 (mg)) of bovine serum albumin (BSA, from Millipore, USA) to 10 milliliters (ml) ml Hartmann's solution (B. Braun Melsungen AG, Germany). BSA was completely dissolved using a shaker (Heidolph POLYMAX 1040) at 50 revolutions per minute.
A cannabis-filled cigarette was formed using a cigarette paper containing 0.8 gr ground cannabis (provided by “Seach” Israel), from flowers and budding leaves. A Pasteur pipette was cut longitudinally at its wide end, and the cigarette was lodged in to the cut end. The narrow end of the pipette was attached to a syringe. The cigarette was lit in a fume hood, and cigarette smoke was collected in the syringe by pulling the syringe plunger. The smoke was then slowly released into the BSA solution by depressing the plunger. Approximately 350 ml of smoke-containing air was gently bubbled through the BSA solution.
As a control, a solution of 10 ml of Hartmann's solution was prepared without the addition of BSA and a similar procedure of cannabis smoke formation and bubbling was performed.
Samples having a volume of 3 ml of the BSA solution and the control solution were each inserted in to HPLC glass vials and the open vials were inserted into a vacuum oven for 24 hours at 37° Celsius.
The solid phase after the evaporation was crushed in to a fine powder using mortar and pestle. The powder was extracted using Methanol chloroform 9:1 extract solution, sonicated for 30 minutes, and was then filtered and added in to an HPLC testing tube.
HPLC was performed using an HP1050 AGILENT, DAD detector, XBridge C18 3.5 μm 4.6×150 mm column, and according to the following parameters: […]

[13] = strain of cannabis high in CBD and THC

CCCCCc1cc(O)c2c(c1)OC(C)(C)[C@@H]1CCC(C)=C[C@@H]21 [THC, tetrahydrocannabinol, reference compound]
relative concentration of cannabinoids (relative to total cannabinoid content), Smoke passed through ethanol [1, 13]: 40.7 percent (weight/weight)
relative concentration of cannabinoids (relative to total cannabinoid content), Vapor passed through ethanol [1, 13]: 40.9 percent (weight/weight)
relative concentration of cannabinoids (relative to total cannabinoid content), Smoke passed through ethanol ([1]; strain of cannabis high in THC): 86.7 percent (weight/weight)
relative concentration of cannabinoids (relative to total cannabinoid content), Vapor passed through ethanol ([1]; strain of cannabis high in THC): 94.6 percent (weight/weight)
percentage of each cannabinoid relative to total cannabinoids adsorbed to protein, Adsorbed to BSA after extract combined with BSA solution [2]: 63 percentage
adsorbed THC per mg of albumin [3]: above 50 μg adsorbed THC per mg of albumin
adsorption of THC to protein as ethanol concentration increases [4]: adsorption of THC to protein increases
relative concentration of cannabinoids (relative to total cannabinoid content), Smoke passed through BSA/water/ethanol [5, 13]: 32.8 percent (weight/weight)
relative concentration of cannabinoids (relative to total cannabinoid content), Vapor passed through BSA/water/ethanol [5, 13]: 37.7 percent (weight/weight)
relative concentration of cannabinoids (relative to total cannabinoid content), Smoke passed through BSA/water/ethanol ([5]; strain of cannabis high in THC): 69.7 percent (weight/weight)
percentage of each cannabinoid relative to total cannabinoids, Extract [6]: 68 percentage
amount of cannabinoids dissolved in ethanol, Smoke [7]: 6195.223 micrograms/ml
amount of cannabinoids dissolved in ethanol, Vapor [7]: 3777.7796 micrograms/ml
protein-bound cannabinoid quantified, Smoke [8]: 121.38
protein-bound cannabinoid quantified, Vapor [8]: 131.955
percentage of each cannabinoid relative to total cannabinoids adsorbed to protein, Bovine γ-globulin [9]: 0 percentage
percentage of each cannabinoid relative to total cannabinoids adsorbed to protein, Rice recombinant HSA [10]: 21 percentage
percentage of each cannabinoid relative to total cannabinoids adsorbed to protein, Ovalbumin [11]: 41.7 percentage
active cannabinoids found by HPLC in BSA aqueous solution after cannabis smoke was introduced [12]: dissolved in the solution
